How the values were obtained:
[1] = molecular target: full-length human ATR protein (ATR/ATRIP) (Homo sapiens (Human), UniProt Q13535); experiment: Binding Assay ATR (TR-FRET, tracer A displacement); conditions: displacement of fluorescent tracer A from GST-ATR/ATRIP
Procedure, shortened: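 GST-tagged full-length human ATR co-purified with ATRIP, 4.2 nM stock working solution, pre-complexed 30 min with 4.2 nM anti-GST-Tb in HEPES pH 7.0/MgCl2/DTT buffer. Compound pre-bound 10 min, then tracer A (100 nM solution) added for 30 min at 22 °C. 570/545 nm TR-FRET ratio; 11 concentrations 20 μM-0.1 nM; IC50 by 4-parameter fit.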

[2] = system: HeLa cells; experiment: Proliferation assay (HeLa, crystal violet); assay type: cell-based; conditions: Homo sapiens, 96 h, 4 days incubation, crystal violet staining, read-out: Inhibition of HeLa cell proliferation
Procedure: Human tumour cells were originally obtained from the American Type Culture Collection (ATCC), the Deutsche Sammlung von Mikroorganismen und Zellkulturen (DSMZ, German Collection of Microorganisms and Cell Cultures) or Epo GmbH, Berlin.
Adherently growing cells (HeLa, HeLa-MaTu-ADR, HT-144, Lovo, HT-29, NCI-H460, DU145, Caco2, B16F10) were plated out in a density of 1500-4000 cells/measurement point, depending on the rate of growth of the cell line, in a 96-well multititre plate in 200 μl of growth medium (DMEM/HAMS F12, 2 mM L-glutamine, 10% foetal calf serum). After 24 hours, the cells of one plate (zero plate) were dyed with crystal violet (see below), whereas the medium of the other plates was replaced with fresh culture medium (200 μl) to which the test substances were added in various concentrations (0 μM, and also in the range of 0.001-10 μM; the final concentration of the solvent dimethyl sulphoxide was 0.1 or 0.5%). The cells were incubated for 4 days in the presence of the test substances. Cell proliferation was determined by staining the cells with crystal violet: the cells were fixed at room temperature for 15 min by adding 20 μl/measurement point of an 11% strength glutaraldehyde solution. After washing the fixed cells three times with water, the plates were dried at room temperature. The cells were stained by adding 100 μl/measurement point of a 0.1% strength crystal violet solution (pH adjusted to pH 3 by adding acetic acid). After washing the cells three times with water, the plates were dried at room temperature. The dye was dissolved by adding 100 μl/measurement point of a 10% strength acetic acid solution. Absorbance was determined photometrically at a wavelength of 595 nm. The percentage change in cell growth was calculated by normalizing the measured values to the absorbance values of the zero plate (=0%) and the absorbance of the untreated (0 μM) cells (=100%). The IC50 values were determined by means of a four parameter fit.
Inhibition of proliferation of HeLa cells by compounds according to the present invention, determined as described above. All IC50 (inhibitory concentration at 50% of maximal effect) values are indicated in M, “n.t.” means that the compounds have not been tested in the respective assay.

Chain of full-length human ATR protein (ATR/ATRIP) (Q13535 other isoform, or with tags, fused parts or gaps): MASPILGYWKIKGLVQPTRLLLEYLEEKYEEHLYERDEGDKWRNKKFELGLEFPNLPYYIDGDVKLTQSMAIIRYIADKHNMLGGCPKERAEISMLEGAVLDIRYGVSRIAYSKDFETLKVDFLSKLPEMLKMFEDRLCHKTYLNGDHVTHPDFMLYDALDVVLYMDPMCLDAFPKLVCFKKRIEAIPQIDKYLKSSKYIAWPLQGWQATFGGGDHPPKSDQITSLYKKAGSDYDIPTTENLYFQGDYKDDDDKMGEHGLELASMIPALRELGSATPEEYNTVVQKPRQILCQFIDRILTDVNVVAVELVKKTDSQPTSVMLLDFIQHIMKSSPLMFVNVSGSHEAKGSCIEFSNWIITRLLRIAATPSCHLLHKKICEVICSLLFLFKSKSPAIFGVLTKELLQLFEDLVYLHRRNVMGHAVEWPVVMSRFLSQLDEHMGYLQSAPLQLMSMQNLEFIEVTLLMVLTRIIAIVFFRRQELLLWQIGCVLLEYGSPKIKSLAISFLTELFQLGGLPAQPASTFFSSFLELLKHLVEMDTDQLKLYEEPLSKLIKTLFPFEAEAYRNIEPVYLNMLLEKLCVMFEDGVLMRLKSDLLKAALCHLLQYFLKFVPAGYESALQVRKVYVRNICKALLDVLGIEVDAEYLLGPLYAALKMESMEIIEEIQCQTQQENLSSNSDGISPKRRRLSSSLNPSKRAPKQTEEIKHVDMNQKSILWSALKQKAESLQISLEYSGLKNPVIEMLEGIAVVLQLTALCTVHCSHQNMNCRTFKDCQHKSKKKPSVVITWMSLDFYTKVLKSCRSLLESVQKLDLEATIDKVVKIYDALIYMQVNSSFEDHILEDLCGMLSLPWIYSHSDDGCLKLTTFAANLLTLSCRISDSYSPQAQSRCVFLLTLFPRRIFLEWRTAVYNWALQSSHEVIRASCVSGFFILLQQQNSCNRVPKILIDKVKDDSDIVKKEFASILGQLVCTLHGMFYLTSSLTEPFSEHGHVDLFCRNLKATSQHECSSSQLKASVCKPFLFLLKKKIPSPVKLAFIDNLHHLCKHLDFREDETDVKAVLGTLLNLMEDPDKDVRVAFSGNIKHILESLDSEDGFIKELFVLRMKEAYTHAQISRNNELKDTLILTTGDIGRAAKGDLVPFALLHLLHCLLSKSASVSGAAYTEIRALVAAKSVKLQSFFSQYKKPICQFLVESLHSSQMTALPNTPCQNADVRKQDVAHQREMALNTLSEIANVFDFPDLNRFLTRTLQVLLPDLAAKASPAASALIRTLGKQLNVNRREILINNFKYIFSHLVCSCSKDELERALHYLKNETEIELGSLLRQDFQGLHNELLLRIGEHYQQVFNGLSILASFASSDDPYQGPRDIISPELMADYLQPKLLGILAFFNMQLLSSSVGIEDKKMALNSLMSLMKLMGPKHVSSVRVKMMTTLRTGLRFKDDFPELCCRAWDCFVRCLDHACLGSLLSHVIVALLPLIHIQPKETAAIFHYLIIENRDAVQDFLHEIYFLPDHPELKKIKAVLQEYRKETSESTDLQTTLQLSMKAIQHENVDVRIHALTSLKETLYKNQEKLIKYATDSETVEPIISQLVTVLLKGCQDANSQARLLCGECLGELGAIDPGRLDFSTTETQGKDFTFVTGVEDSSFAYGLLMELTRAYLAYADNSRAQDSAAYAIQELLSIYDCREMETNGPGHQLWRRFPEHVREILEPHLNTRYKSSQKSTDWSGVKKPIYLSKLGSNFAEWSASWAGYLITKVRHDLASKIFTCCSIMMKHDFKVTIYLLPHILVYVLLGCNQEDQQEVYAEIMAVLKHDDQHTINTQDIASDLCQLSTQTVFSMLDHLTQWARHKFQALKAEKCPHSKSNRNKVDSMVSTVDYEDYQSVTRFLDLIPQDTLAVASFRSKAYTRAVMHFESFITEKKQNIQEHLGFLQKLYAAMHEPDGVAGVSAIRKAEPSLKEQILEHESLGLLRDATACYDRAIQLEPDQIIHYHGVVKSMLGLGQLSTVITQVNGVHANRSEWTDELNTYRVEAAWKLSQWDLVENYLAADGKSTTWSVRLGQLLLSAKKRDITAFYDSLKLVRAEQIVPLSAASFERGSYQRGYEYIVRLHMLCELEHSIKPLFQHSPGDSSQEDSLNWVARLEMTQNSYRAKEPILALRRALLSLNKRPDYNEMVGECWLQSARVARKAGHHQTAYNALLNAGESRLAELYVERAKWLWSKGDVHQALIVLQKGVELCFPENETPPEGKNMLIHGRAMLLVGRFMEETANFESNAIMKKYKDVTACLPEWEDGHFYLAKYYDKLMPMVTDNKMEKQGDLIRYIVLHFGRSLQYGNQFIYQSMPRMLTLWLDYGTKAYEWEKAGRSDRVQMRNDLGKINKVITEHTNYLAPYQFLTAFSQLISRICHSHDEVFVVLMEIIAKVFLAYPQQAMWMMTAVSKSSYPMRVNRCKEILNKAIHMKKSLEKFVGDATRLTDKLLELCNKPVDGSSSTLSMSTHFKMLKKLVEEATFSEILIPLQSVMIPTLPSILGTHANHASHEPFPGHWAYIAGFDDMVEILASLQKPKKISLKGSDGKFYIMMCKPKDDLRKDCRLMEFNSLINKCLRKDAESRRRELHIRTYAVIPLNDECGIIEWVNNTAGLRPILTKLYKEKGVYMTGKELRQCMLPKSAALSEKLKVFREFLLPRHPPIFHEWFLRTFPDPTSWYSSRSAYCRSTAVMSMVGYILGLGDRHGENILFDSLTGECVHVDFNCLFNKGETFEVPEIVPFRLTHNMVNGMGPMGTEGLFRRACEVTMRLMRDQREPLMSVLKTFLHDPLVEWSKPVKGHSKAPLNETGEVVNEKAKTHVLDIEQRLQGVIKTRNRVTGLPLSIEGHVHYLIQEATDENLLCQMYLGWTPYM
Chain of full-length human ATR protein (ATR/ATRIP) (Q8WXE1 other isoform, or with tags, fused parts or gaps partner): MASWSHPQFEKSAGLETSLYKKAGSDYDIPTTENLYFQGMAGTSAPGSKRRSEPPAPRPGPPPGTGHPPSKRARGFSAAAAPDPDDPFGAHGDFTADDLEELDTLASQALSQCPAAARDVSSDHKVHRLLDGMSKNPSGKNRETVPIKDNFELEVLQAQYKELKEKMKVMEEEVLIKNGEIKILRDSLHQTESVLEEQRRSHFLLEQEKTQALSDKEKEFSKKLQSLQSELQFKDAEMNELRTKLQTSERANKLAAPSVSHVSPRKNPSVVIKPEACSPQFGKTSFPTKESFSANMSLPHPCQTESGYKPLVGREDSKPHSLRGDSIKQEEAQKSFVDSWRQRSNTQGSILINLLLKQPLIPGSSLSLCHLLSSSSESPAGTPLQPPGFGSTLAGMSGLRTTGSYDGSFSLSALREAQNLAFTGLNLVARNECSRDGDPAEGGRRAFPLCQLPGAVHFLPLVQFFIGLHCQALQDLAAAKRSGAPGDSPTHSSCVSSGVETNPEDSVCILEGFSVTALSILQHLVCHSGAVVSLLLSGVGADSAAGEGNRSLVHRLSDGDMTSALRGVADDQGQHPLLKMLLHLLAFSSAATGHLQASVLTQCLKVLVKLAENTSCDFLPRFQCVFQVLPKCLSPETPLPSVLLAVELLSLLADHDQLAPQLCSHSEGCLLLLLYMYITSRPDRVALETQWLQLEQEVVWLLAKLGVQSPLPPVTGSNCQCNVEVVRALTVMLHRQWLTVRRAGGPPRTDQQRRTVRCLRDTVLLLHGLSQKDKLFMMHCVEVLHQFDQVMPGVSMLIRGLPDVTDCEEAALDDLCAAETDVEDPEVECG

**Q.** Which results are given for `Cc1cnc(-c2ccn[nH]2)c2nc(N3CCOC[C@H]3C)cc(-c3cnc(Cl)n3C)c12` [Example 5, 4-(2-chloro-1-methyl-1H-imidazol-5-yl)-5-methyl-2-[(3R)-3-methylmorpholin-4-yl]-8-(1H-pyrazol-5-yl)-1,7-naphthyridine]?
**A.** IC50 [1]: 5.07 nM; IC50 [2]: 85.1 nM

**Q.** `Cc1cnc(-c2ccn[nH]2)c2nc(N3CCOC[C@H]3C)cc(-c3ccc(N4CCNCC4)cc3F)c12` [Example 6, 4-[2-fluoro-4-(piperazin-1-yl)phenyl]-5-methyl-2-[(3R)-3-methylmorpholin-4-yl]-8-(1H-pyrazol-5-yl)-1,7-naphthyridine] was tested. Which IC50 [1] did it give?
**A.** 14.2 nM

**Q.** And the IC50 [2]?
**A.** 296 nM

**Q.** Which results are given for `Cc1cnc(-c2ccn[nH]2)c2nc(N3CCOC[C@H]3C)cc(-c3cccc(F)c3F)c12` [Example 7, 4-(2,3-difluorophenyl)-5-methyl-2-[(3R)-3-methylmorpholin-4-yl]-8-(1H-pyrazol-5-yl)-1,7-naphthyridine]?
**A.** IC50 [1]: 8.27 nM; IC50 [2]: 499 nM

**Q.** For `Cc1cnc(-c2ccn[nH]2)c2nc(N3CCOC[C@H]3C)cc(N=S3(=O)CCCC3)c12` [Example 8, N-5-methyl-2-[(3R)-3-methylmorpholin-4-yl]-8-(1H-pyrazol-5-yl)-1,7-naphthyridin-4-yltetrahydro-1H-1λ^4-thiophen-1-imine 1-oxide], which IC50 [1] is on record?
**A.** 35.5 nM

**Q.** What about the IC50 [2] of the same molecule?
**A.** 473 nM

**Q.** `CCS(=O)(CC)=Nc1cc(N2CCOC[C@H]2C)nc2c(-c3ccn[nH]3)ncc(C)c12` [Example 9, 4-[diethyl(oxido)-λ^6-sulfanylidene]amino-5-methyl-2-[(3R)-3-methylmorpholin-4-yl]-8-(1H-pyrazol-5-yl)-1,7-naphthyridine] was tested. Which IC50 [1] did it give?
**A.** 14.1 nM

**Q.** What about the IC50 [2] of the same molecule?
**A.** 117 nM

**Q.** Which IC50 [1] does the source give for `Cc1cnc(-c2ccn[nH]2)c2nc(N3CCOC[C@H]3C)cc(N3CCOCC3)c12` [Example 10, 5-methyl-2-[(3R)-3-methylmorpholin-4-yl]-4-(morpholin-4-yl)-8-(1H-pyrazol-5-yl)-1,7-naphthyridine] here?
**A.** 8.91 nM

**Q.** What about the IC50 [2] of the same molecule?
**A.** 109 nM

**Q.** With `Cc1cnc(-c2ccn[nH]2)c2nc(N3CCOC[C@H]3C)cc(N3CCC(CO)CC3)c12` [Example 11, (1-{5-methyl-2-[(3R)-3-methylmorpholin-4-yl]-8-(1H-pyrazol-5-yl)-1,7-naphthyridin-4-yl}piperidin-4-yl)methanol] as the molecule, how does the IC50 [1] read?
**A.** 3.8 nM

**Q.** And the IC50 [2]?
**A.** 33.2 nM

**Q.** For `Cc1cnc(-c2ccn[nH]2)c2nc(N3CCOC[C@H]3C)cc(N3CCN(S(C)(=O)=O)CC3)c12` [Example 12, 5-methyl-2-[(3R)-3-methylmorpholin-4-yl]-4-[4-(methylsulfonyl)piperazin-1-yl]-8-(1H-pyrazol-5-yl)-1,7-naphthyridine], which IC50 [1] is on record?
**A.** 5.49 nM

**Q.** What about the IC50 [2] of the same molecule?
**A.** 440 nM

**Q.** Which IC50 [1] does the source give for `Cc1cnc(-c2ccn[nH]2)c2nc(N3CCOC[C@H]3C)cc(N(C)CC(C)(C)C)c12` [Example 13, N-(2,2-dimethylpropyl)-N,5-dimethyl-2-[(3R)-3-methylmorpholin-4-yl]-8-(1H-pyrazol-5-yl)-1,7-naphthyridin-4-amine] here?
**A.** 4.93 nM

**Q.** What about the IC50 [2] of the same molecule?
**A.** 745 nM

**Q.** For `COC(=O)c1cc(N2CCOC[C@H]2C)nc2c(-c3ccn[nH]3)ncc(C)c12` [Example 14, methyl 5-methyl-2-[(3R)-3-methylmorpholin-4-yl]-8-(1H-pyrazol-5-yl)-1,7-naphthyridine-4-carboxylate], which IC50 [1] is on record?
**A.** 53 nM

**Q.** And the IC50 [2]?
**A.** 440 nM

**Q.** What does the source list for `Cc1cnc(-c2ccn[nH]2)c2nc(N3CCOC[C@H]3C)cc(-c3cncn3C)c12` [Example 15, 5-methyl-4-(1-methyl-1H-imidazol-5-yl)-2-[(3R)-3-methylmorpholin-4-yl]-8-(1H-pyrazol-5-yl)-1,7-naphthyridine]?
**A.** IC50 [1]: 5.86 nM; IC50 [2]: 145 nM

**Q.** Which results are given for `Cc1ncc(-c2cc(N3CCOC[C@H]3C)nc3c(-c4ccn[nH]4)ncc(C)c23)s1` [Example 16, 5-methyl-2-[(3R)-3-methylmorpholin-4-yl]-4-(2-methyl-1,3-thiazol-5-yl)-8-(1H-pyrazol-5-yl)-1,7-naphthyridine]?
**A.** IC50 [1]: 14.2 nM; IC50 [2]: 33.9 nM

**Q.** For `CCOP(C)(=O)c1cc(N2CCOC[C@H]2C)nc2c(-c3ccn[nH]3)ncc(C)c12` (stereo partly drawn) [Example 17, ethyl methyl{5-methyl-2-[(3R)-3-methylmorpholin-4-yl]-8-(1H-pyrazol-5-yl)-1,7-naphthyridin-4-yl}phosphinate], which IC50 [1] is on record?
**A.** 42.2 nM

**Q.** And the IC50 [2]?
**A.** 112 nM

From US10729680B2, “5-substituted 2-(morpholin-4-yl)-1,7-naphthyridines” (BAYER PHARMA AKTIENGESELLSCHAFT, priority 2016, dated 2020)
